Measurements: patent publication US6403635B1, “Method of treating atherosclerosis or restenosis using microtubule stabilizing agent” (The United States of America as represented by the …, priority 1993, dated 2002)

Columns and labels:
[1] = system: Vascular Smooth Muscle Cells (VSMCs); experiment: Chemoinvasion (Boyden chamber) assay, PDGF-BB as attractant; format: cell-based, rat
Experimental: (§1) Vascular Smooth Muscle Cells (VSMCs) were isolated by collagenase/elastase enzymatic digestion of the medial layers of the rat aorta obtained from 6 month old Wistar rats. The cells were maintained in culture with 10% fetal calf serum, high glucose DMEM, and amino acid supplement. Cell cultures were maintained at 37° C. in 5% CO2.
(§2) Chemoinvasion (Boyden chamber) assays were performed using modified Boyden chamber (Albini, et al. (1987) Cancer Res., 47:3239-3245), comprising an upper chamber separated from a lower chamber by a porous PVPF filter. PVPF filters (8 μm pore diameter, Nucleopore Filters, Pleasanton, Calif.) were coated and air dried consecutively with solutions containing 100 μg/ml type I collagen, 5 μg/ml fibronectin, and 5 μg reconstituted basement membrane (produced from the Englebreth-Holm-Swarm tumor (Kleinman, et al. (1986) Biochemistry, 25:312-318), producing a continuous 10 μm thick coating of matrix material. Boyden chambers were assembled by adding 10 ng/ml PDGF BB in DMEM to the lower (chemoattractant) chamber. Cells (approximately 200,000) suspended in DMEM containing 0.1% BSA were then added to the upper chamber. […] The chambers were then incubated for 4 hours at 37° C. in a 5% CO2 atmosphere. At the end of the incubation period, the cells were fixed and stained with hematoxylin and eosin. The cells on the upper surface (non-invaders) were mechanically removed and the cells on the underside of the filter (invaders) were counted under 400× magnification (four random fields were counted per filter and all experiments were run in triplicate, and each triplicate assay was repeated at least three times on separate occasions using different VSMC preparations). Chemotaxis was assayed in analogous fashion in the Boyden chambers described above, except that the reconstituted basement membrane was omitted.
as §1, with “VSMC's” for “Vascular Smooth Muscle Cells (VSMCs)”, “collagense/elastase” for “collagenase/elastase”
Chemoinvasion assays were performed using a modified Boyden chamber, consisting of an upper chamber separated from a lower chamber by a porous PVPF filter. PVPF filters (8 μm pore diameter, Nucleopore Filters Pleasanton, Calif.) were coated and air dried consecutively with solutions containing 100 μg/ml type I collagen, […] fibronectin, and 5 μg reconstituted basement membrane (produced from the Englebreth-Holm-Swarm tumor), producing a continuous 10 μm thick coating of matrix material. Boyden chambers were assembled with PDGF-BB 10 ng/ml in DMEM in the lower (chemoattractant) chamber, then cells (approximately 200,000) suspended in DMEM containing 0.1% BSA were added to the upper chamber. Some of the cells used in these assays were pretreated 18 hours with deuterium oxide (25%, 50%, or 75% v/v substitution for H2O) in culture. In the deuterium oxide-treated groups, ^2H2O substituted DMEM (v/v) was added to the upper and lower chambers at the same concentration as that used for pretreatment. The chambers were then incubated for 4 hours at 37° C. in a humidified 5% CO2 atmosphere. […] After the cells on the upper surface of the filter (non-invaders) were mechanically removed, the cells on the underside (invaders) were counted under 400 X magnification (four random fields were counted per filter and all experiments were run in triplicate).

VSMC [2] = experiment: Chemotaxis assay (Boyden chamber without basement membrane proteins), PDGF-BB as attractant; format: cell-based, rat; conditions: filter coated only with fibronectin and collagen I
Experimental: as §2, with “Chemotaxis was assayed in analogous fashion in the Boyden chambers described above, except that the reconstituted basement membrane was omitted.” left out

[3] = system: VSMC collagenase secretion; experiment: Gelatinase zymography of Boyden assay supernatants; format: cell-based, rat; conditions: taxol range 30 pM to 100 nM
Experimental: Gelatinase zymography was performed on the superannuates removed after the 4 hour conclusion of the Boyden assays described above. Gelatin-degrading proteinases secreted into the media by VSMCs were analyzed by non-reducing sodium dodecyl sulfate-polyacrylamide gel electrophoresis in 10% polyacrylamide gels containing 0.1% (w/v) gelatin. Following electrophoresis, the gelatinases were renatured by incubating the gel for 30 min. at 23° C. in 2.5% (v/v) Triton X-100 followed by 18 hour incubation at 37° C. in 0.2 M NaCl, 5 mM CaCl2 0.02% Brij 35 (w/v), 50 mM Tris-HCI (pH 7.6). The gels were stained for 90 minutes with 0.5% Coomassie Brilliant Blue G-250 and destained with 10% acetic acid, 40% methanol. Gelatinolytic activity was indicated by a clear band against the background of the blue-stained gelatin.

c-fos mRNA expression = experiment: PDGF-BB-stimulated c-fos mRNA expression in cultured VSMC; format: cell-based, rat
rat carotid artery = experiment: Balloon catheter injury of the rat carotid artery (restenosis model); format: in vivo, Wistar rats
Experimental: Under a protocol approved by the National Institute on Aging Animal Care and use Committee, 6 month Wistar rats from the GRC colony wee anesthetized with 20 mg/kg body weight phenobarbital, 2 mg/kg body weight ketamine, and 4 mg/kg body weight xylazine intraperitoneally. The left external carotid artery was cannulated with 2-French Fogarty embolectomy catheter, inflated with saline and passed three times up and down the common carotid artery to produce a distending, deendothelializing injury. […] Cross sections of the carotids were mounted on microscope slides and stained with hematoxylin and eosin stain. The image of the carotid artery was projected onto a digitizing board and the cross sectional areas of the intima and the media were measured. As indicated in the prior art (Ferns, G. A. A. et al. (1991) Science, 253:1129-1132) the rat carotid artery injury model of restenosis can be useful in the study of human restenosis, and indicate potential therapeutic action in humans.

polymerized tubulin = experiment: Microtubule bundling in cultured VSMC (anti-tubulin antibody labelling); format: cell-based, rat
From the text: In deuterium oxide-treated cells, ^2H2O (v/v) was substituted for water (H2O) in the preparation of the DMEM from concentrated stock. […], cells were fixed in 3.7% formalin, premeabilized with 1% Triton X-100, and polymerized tubulin was labelled with mouse anti-β-tubulin antibody (SMI 62 monoclonal antibody to polymerized β-tubulin, Paragon Biotec, Inc., Baltimore, Md.). […] Representative light photomicrographs from (FIG. 5A) control, and (FIG. 5B) 75% deuterium oxide treated VSMCs are shown in FIGS. 5A-5B.

VSMC [4] = experiment: [3H]thymidine incorporation in cultured VSMC
VSMC [5] = experiment: Bromodeoxyuridine (BrDU) incorporation in cultured VSMC; format: cell-based, rat; conditions: various 2H2O concentrations
Experimental: Incorporation of the thymidine analog, bromodeoxyuridine (BrDU) was measured to determine the effect of deuterium oxide on VSMC DNA synthesis. […] Following 20 hr incubation in 10% FCS+DMEM at various ^2H2O concentrations, 10 μM BrDU was added and the incubation continues for an additional 4 hr. […] The cells were incubated for 2 hr with 1N HCl to denature the DNA, and subsequently washed 4 times in PBS. Mouse monoclonal BrDU antibody (Boehringer Mannheim) in 2% BSA-PBS was incubated with cells for 1 hr. After PBS wash, goat anti-mouse antibody conjugated with alkaline phosphatase was added. Cell nuclei containing BrDU substituted for thymidine stained red with alkaline phosphatase substrate, while all other nuclei stained blue. The fraction of BrDU-positive nuclei was compared between control (defined as 100%) and that of the deuterium oxide-pretreated groups.

[6] = cross sectional area, 2 mg/kg i.p., 11 days after injury

IC50 ([1]; Rattus norvegicus, VSMC, 18 h pretreatment, PDGF-BB attractant, 4 h incubation, read-out: half-maximal inhibitory concentration, VSMC invasion) [nM]	level of VSMC collagenase secretion compared to control [3]	IC50 (c-fos mRNA expression; Rattus norvegicus, cultured VSMC, read-out: half-maximal inhibitory concentration, PDGF-BB-stimulated c-fos mRNA expression) [nM]	IC50 (VSMC [4]; Rattus norvegicus, VSMC, read-out: half-maximal inhibitory concentration, VSMC [3H]thymidine incorporation) [nM]	Compound	inhibition of VSMC invasion at 30 pM ([1]; 30 pM (the lowest dose used))	inhibition of VSMC invasion at 100 nM ([1]; 100 nM taxol)	outcome of chemotaxis assay compared with chemoinvasion assay (VSMC [2])	inhibition of c-fos mRNA expression above 20 nM (c-fos mRNA expression; above 20 nM taxol)	reduction of neointimal area compared to vehicle treated animals (rat carotid artery; 2 mg/kg i.p. once daily, 11 days after injury) [%]	Intima (rat carotid artery; [6]) [mm^2]	Media (rat carotid artery; [6]) [mm^2]	I/M (rat carotid artery; intima/media ratio, 2 mg/kg i.p., 11 days after injury)	discernible neointima in taxol-treated animals (rat carotid artery; several of the taxol-treated animals, denuded endothelium present)	microtubule bundling in VSMC's cultured on plastic (polymerized tubulin; 0.1, 1, 10 nM taxol, 18-hour pre-treatment)	inhibition of [3H]thymidine incorporation at 1 nM (VSMC [4]; 1 nM taxol)	inhibition of [3H]thymidine incorporation at 100 nM (VSMC [4]; 100 nM taxol)	inhibition of VSMC Boyden chamber invasion at 75% 2H2O ([1]; 75% 2H2O)	half-maximal inhibition of PDGF-mediated VSMC Boyden chamber invasion ([1]; 18 h pretreatment, v/v substitution for H2O) [% 2H2O]	effect on cultured VSMC proliferation and DNA synthesis (BrDU incorporation) (VSMC [5])	microtubule hyperpolymerization in cultured VSMCs (polymerized tubulin; 18 hours with 25%, 50% or 75% deuterium oxide)
0.5	did not vary significantly	1	5	CC(=O)O[C@H]1C(=O)[C@@]2(C)[C@H]([C@H](OC(=O)c3ccccc3)[C@]3(O)C[C@H](OC(=O)[C@H](O)[C@@H](NC(=O)c4ccccc4)c4ccccc4)C(C)=C1C3(C)C)[C@]1(OC(C)=O)CO[C@@H]1C[C@@H]2O [Taxol]	significant inhibition	essentially complete inhibition	identical outcome	essentially complete inhibition	70	0.03 ± 0.01	0.16 ± 0.02	0.18 ± 0.04	virtually no discernible neointimal	dose-dependent microtubule bundling	significant inhibition	essentially complete inhibition	–	–	–	–
–	–	–	–	[2H]O[2H] [deuterium oxide]	–	–	–	–	–	–	–	–	–	–	–	–	nearly complete inhibition	25	inhibited cultured VSMC proliferation and DNA synthesis in a dose-dependent fashion	dose-dependent microtubule hyperpolymerization
